Patent publication US4267192A, “Method for treating inflammation” (priority 1980, dated 1981)

How the values were obtained:
[1] = system: carrageenan-induced edema in the hind paw of normal and adrenalectomized rats; experiment: carrageenan paw edema in normal and adrenalectomized rats; type: in vivo, rat
Description: (§1) Vehicle alone is administered as a control. Sixty minutes after drug administration edema is induced by an injection of 0.1 ml. of a 1% carrageenan solution is saline into the subplantar tissue of the rat's right hind paw. Two minutes later, paw volume is measured volumetrically with a plethysmograph and again 3 hours later. The mean volume of swelling for the control group is calculated and compared to the test groups. Percent change in paw edema is calculated and analyzed statistically (unpaired, Student's t-test).
Normal rats received the same doses as adrenalectomized rats.

prostaglandin synthetase = molecular target: T1, prostaglandin synthetase (Ovis aries, UniProt P05979); experiment: in vitro prostaglandin synthetase activity assay (PGE2 formation from 14C-arachidonic acid); type: biochemical, sheep; parameters: microsomal fraction of sheep vesicles; from tissue; host or cells: sheep seminal vesicles, microsomal fraction (105,000×g precipitate); details: for cpm (× 1000), in vitro PGE2 biosynthesis: sheep seminal vesicle microsomes
T1 sequence (P05979 25-600): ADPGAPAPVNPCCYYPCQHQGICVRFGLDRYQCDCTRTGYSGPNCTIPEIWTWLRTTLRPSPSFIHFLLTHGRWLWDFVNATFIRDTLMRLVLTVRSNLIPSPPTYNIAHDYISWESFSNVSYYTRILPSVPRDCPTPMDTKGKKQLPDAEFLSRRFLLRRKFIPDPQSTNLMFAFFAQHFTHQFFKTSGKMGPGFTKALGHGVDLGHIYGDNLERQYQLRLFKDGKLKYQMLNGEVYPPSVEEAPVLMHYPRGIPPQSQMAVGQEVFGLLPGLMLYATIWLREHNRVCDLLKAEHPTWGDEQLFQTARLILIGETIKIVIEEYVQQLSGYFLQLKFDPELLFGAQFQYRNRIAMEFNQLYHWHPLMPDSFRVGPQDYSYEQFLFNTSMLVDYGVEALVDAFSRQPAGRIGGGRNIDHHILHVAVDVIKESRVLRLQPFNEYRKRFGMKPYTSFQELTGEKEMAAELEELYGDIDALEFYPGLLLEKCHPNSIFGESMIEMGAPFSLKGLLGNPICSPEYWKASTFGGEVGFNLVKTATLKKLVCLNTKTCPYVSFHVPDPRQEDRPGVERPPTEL
Description: Frozen sheep seminal vesicles are cleaned of fat and connective tissue and then minced. Ten grams of the minced tissue are homogenized in 20 ml. of 0.125 M Na-EDTA buffer, pH 8.3, employing polytron homogenizer. The homogenate is then centrifuged at 1,200×g. for 10 minutes and the resulting supernatant filtered through two layers of cheese cloth. The filtrate is then centrifuged at 10,000×g. for 20 minutes. The supernatant is then centrifuged at 105,000×g. for 1 hour. The precipitate is dissolved once with Na-EDTA buffer and recentrifuged at 105,000×g. for 1 hour. The final microsomal fraction is then dissolved in 1.0 ml. of Na-EDTA buffer and stored in a freezer.
The incubation buffer medium (1.0 ml. total) consists of 500 μg of lyophilized bovine serum albumin, 5×10^-4 M hydroquinone, 1.0×10^-2 M reduced glutathione, 3×10^-6 M^14 C arachidonic acid (AA) in 0.02 ml. of methanol, 0.01 ml. of the tested drugs in methanol at the desired concentrations, and the microsomal fraction (1.2 mg. protein/ml. incubation medium). This medium is incubated for one hour at 37° C. At the end of this period, enzyme reaction is terminated by the addition of 0.25 ml. of 1 N HCl. 15 μg of non-radioactive Prostaglandin E2 (PGE2), Prostaglandin F2α (PGF2α) and AA (5 μg each) in an ethanol solution is then added to all of the acidified reaction mixtures. The reaction products are extracted with ethylacetate (2×2 ml.) and the total organic solution of 4 ml. is washed with 1.0 ml. of triple distilled water. 3.0 ml. of the total ethylacetate solution is removed and evaporated to dryness under nitrogen gas. The residue is then re-dissolvedin 50 μl. of 100% ethanol and spotted on silica gel GF plates and subjected to chromatograph. Only the organic phase of the ethyl acetate:water:iso-octane:acetic acid system (11:10:5:2) is used as solvent in the chromatography system.
After exposure to iodine vapor, the PGE2 and AA spots are scraped from the TLC plate, put into separate vials, and mixed with 10.0 ml. of Instagel scintillation cocktail for counting in a Nuclear-Chicago Mark II liquid scintillation counter.
Results are expressed as counts per minute (cpm), evidencing in vitro PGE2 biosynthesis.

[2] = system: carrageenan-induced edema in the hind paw of the rat; experiment: rat carrageenan edema test (hind paw); type: in vivo, rat (male Sprague-Dawley); details: for Change in paw volume (ml) from 0-3 hr: mean ± S.E.; for % Change in paw edema: vs control
Description: as §1

[3] = Adrenalectomized Rats, oral 100 mg/kg
[4] = Adrenalectomized Rats, oral 200 mg/kg
[5] = oral 100 mg/kg, Table 1 group a
[6] = oral 180 mg/kg, Table 1 group c
[7] = oral 180 mg/kg, Table 1 group e

Compound: O=C(O)C=C1c2ccccc2C=Cc2ccccc21 [DCHA]
- % Inhibition [1, 3]: 37%
- Edema (ml) ± S.E. [1, 3]: 0.57 ± .02 mL
- % Inhibition [1, 4]: 41%
- Edema (ml) ± S.E. [1, 4]: 0.81 ± .04 mL
- % Inhibition ([1]; Normal Rats, oral 100 mg/kg): 38%
- Mean Edema (ml) ± S.E. ([1]; Normal Rats, oral 100 mg/kg): 0.58 ± .04 mL
- % Inhibition ([1]; Normal Rats, oral 200 mg/kg): 44%
- Mean Edema (ml) ± S.E. ([1]; Normal Rats, oral 200 mg/kg): 0.53 ± .05 mL
- action by stimulating naturally occurring steroids ([1]; in words): independent of the adrenal glands
- anti-inflammatory activity in adrenalectomized rats compared with normal control animals ([1]; oral 100 and 200 mg/kg): not different from that observed in normal control animals
- cpm (× 1000), in vitro PGE2 biosynthesis (prostaglandin synthetase; 30 μg/ml): 6.6 ± .3 cpm (× 1000)
- cpm (× 1000), in vitro PGE2 biosynthesis (prostaglandin synthetase; 50 μg/ml): 5.2 ± .4 cpm (× 1000)
- cpm (× 1000), in vitro PGE2 biosynthesis (prostaglandin synthetase; 60 μg/ml): 5.1 ± .2 cpm (× 1000)
- cpm (× 1000), in vitro PGE2 biosynthesis (prostaglandin synthetase; 100 μg/ml): 3.0 ± .1 cpm (× 1000)
- cpm (× 1000), in vitro PGE2 biosynthesis (prostaglandin synthetase; 120 μg/ml): 3.3 ± .4 cpm (× 1000)
- cpm (× 1000), in vitro PGE2 biosynthesis (prostaglandin synthetase; 150 μg/ml): 2.1 ± .3 cpm (× 1000)
- cpm (× 1000), in vitro PGE2 biosynthesis (prostaglandin synthetase; 200 μg/ml): 2.0 ± .1 cpm (× 1000)
- IC50 (prostaglandin synthetase; calculated from Table 6, read-out: 50% inhibitory concentration (converted)): 259 µM
- inhibitory effect on prostaglandin synthetase activity (prostaglandin synthetase; in words): does not have an appreciable inhibitory effect on prostaglandin synthetase activity
- estimated ED50 (carrageenan paw edema) ([2]; oral): ~80 mg/kg
- oral doses that inhibit carrageenan paw edema ([2]; oral): 10 to 180 mg/kg
- Change in paw volume (ml) from 0-3 hr ([2]; oral 3 mg/kg, Table 1 group a): 0.63 ± 0.10 mL
- % Change in paw edema ([2]; oral 3 mg/kg, Table 1 group a): -18%
- Change in paw volume (ml) from 0-3 hr ([2]; oral 10 mg/kg, Table 1 group a): 0.61 ± 0.05 mL
- % Change in paw edema ([2]; oral 10 mg/kg, Table 1 group a): -21%
- Change in paw volume (ml) from 0-3 hr ([2]; oral 10 mg/kg, Table 1 group b): 0.53 ± 0.10 mL
- % Change in paw edema ([2]; oral 10 mg/kg, Table 1 group b): -48%
- Change in paw volume (ml) from 0-3 hr ([2]; oral 20 mg/kg, Table 1 group c): 0.84 ± 0.10 mL
- % Change in paw edema ([2]; oral 20 mg/kg, Table 1 group c): -16%
- Change in paw volume (ml) from 0-3 hr ([2]; oral 20 mg/kg, Table 1 group e): 1.08 ± 0.05 mL
- % Change in paw edema ([2]; oral 20 mg/kg, Table 1 group e): -6%
- Change in paw volume (ml) from 0-3 hr ([2]; oral 30 mg/kg, Table 1 group a): 0.48 ± 0.06 mL
- % Change in paw edema ([2]; oral 30 mg/kg, Table 1 group a): -38%
- Change in paw volume (ml) from 0-3 hr ([2]; oral 30 mg/kg, Table 1 group b): 0.58 ± 0.08 mL
- % Change in paw edema ([2]; oral 30 mg/kg, Table 1 group b): -43%
- Change in paw volume (ml) from 0-3 hr ([2]; oral 60 mg/kg, Table 1 group c): 0.47 ± 0.08 mL
- % Change in paw edema ([2]; oral 60 mg/kg, Table 1 group c): -53%
- Change in paw volume (ml) from 0-3 hr ([2]; oral 60 mg/kg, Table 1 group e): 0.82 ± 0.13 mL
- % Change in paw edema ([2]; oral 60 mg/kg, Table 1 group e): -29%
- Change in paw volume (ml) from 0-3 hr ([2]; oral 90 mg/kg, Table 1 group b): 0.44 ± 0.03 mL
- % Change in paw edema ([2]; oral 90 mg/kg, Table 1 group b): -57%
- Change in paw volume (ml) from 0-3 hr [2, 5]: 0.44 ± 0.07 mL
- % Change in paw edema [2, 5]: -43%
- Change in paw volume (ml) from 0-3 hr [2, 6]: 0.49 ± 0.06 mL
- % Change in paw edema [2, 6]: -51%
- Change in paw volume (ml) from 0-3 hr [2, 7]: 0.62 ± 0.04 mL
- % Change in paw edema [2, 7]: -46%
